The values below come from US5185330A, “Penam derivatives and salts thereof, and antibacterial agent comprising the same” (Toyama Chemical Co., Ltd., priority 1989, dated 1993).

Values after ≈ are worked out from the molar mass of the structure shown. Where two headings read alike, the source gives them in different places.

The test system of one experiment is E. coli TK-3. Nature of the experiment: Antibacterial activity (MIC, agar dilution) against E. coli TK-3*. Type of experiment: cell-based. The settings on record: Escherichia coli. The protocol:
(§1) According to Chemotherapy, vol. 29, No. 1, pp. 76-79 (1981), bacterium was cultured in peptone broth manufactured by Eiken Kagaku K.K. at 37° C. for 20 hours to prepare a bacterial solution of 10^8 cells/ml, and one loopful of the bacterial solution was inoculated into Heart Infusion agar medium (manufactured by Eiken Kagaku K.K.) containing a drug, cultured at 37° C. for 20 hours, after which growth of bacterium was observed. The minimum concentration at which the growth of bacterium was prevented was indicated as MIC (μg/ml).
(§2) *means that β-lactamaseproducing bacteria.

The subject of another experiment is S. marcescens W-8. Nature of the experiment: Antibacterial activity (MIC, agar dilution) against S. marcescens W-8*. Type of experiment: cell-based. The settings on record: Serratia marcescens. The protocol: as §1, §2
The mark [1] stands for this setting: TK3, E. coli TK-3* (β-lactamase-producing bacteria), Heart Infusion agar, 37° C., 20 hours, one loopful of 10^8 cells/ml, read-out: MIC.
The mark [2] stands for this setting: W8, S. marcescens W-8* (β-lactamase-producing bacteria), Heart Infusion agar, 37° C., 20 hours, one loopful of 10^8 cells/ml, read-out: MIC.

With `O=C(O)C(C(=O)N[C@@H]1C(=O)N2C[C@@](C(=O)O)(N3CCN(N=Cc4ccco4)C3=O)S[C@H]12)c1ccccc1` (stereo partly drawn) [compound 2], the MIC in the experiment with E. coli TK-3 (setting [1]) and in the experiment on S. marcescens W-8 (setting [2]) was 0.39 µg/mL (≈ 0.739 µM) throughout.
For the compound `CC(=O)Oc1cc(C(C(=O)N[C@@H]2C(=O)N3C[C@@](C(=O)O)(N4CCN(NC(N)=O)C4=O)S[C@H]23)S(=O)(=O)O)cc(Cl)c1OC(C)=O` (stereo partly drawn) [compound 22], the MIC came out at 6.25 µg/mL (≈ 9.2 µM) in the experiment with E. coli TK-3 (setting [1]) and 12.5 µg/mL (≈ 18.4 µM) in the experiment with S. marcescens W-8 (setting [2]).
The matching figures for `NS(=O)(=O)NN1CCN([C@]2(C(=O)O)CN3C(=O)[C@@H](NC(=O)C(C(=O)O)c4ccc(O)cc4)[C@H]3S2)C1=O` (stereo partly drawn) [compound 44]: 6.25 µg/mL (≈ 11.5 µM) and 6.25 µg/mL (≈ 11.5 µM).
`O=C(N[C@@H]1C(=O)N2C[C@@](C(=O)O)(N3CCN(N=C4SCCS4)C3=O)S[C@H]12)C(c1ccccc1)S(=O)(=O)O` (stereo partly drawn) [compound 26]: the MIC in the experiment with E. coli TK-3 (setting [1]) is no more than 0.1 µg/mL; with S. marcescens W-8 (W8, 20 h), 0.39 µg/mL (≈ 0.664 µM).
In the case of `NC(=O)C=NN1CCN([C@]2(C(=O)O)CN3C(=O)[C@@H](NC(=O)C(C(=O)O)c4ccccc4)[C@H]3S2)C1=O` (stereo partly drawn) [compound 32], the figures for the MIC in the experiment on E. coli TK-3 (setting [1]) and in the experiment on S. marcescens W-8 (setting [2]) were 1.56 µg/mL (≈ 3.09 µM) and 0.78 µg/mL (≈ 1.55 µM), respectively.
On to `NC(=O)NN1CCN([C@]2(C(=O)O)CN3C(=O)[C@@H](NC(=O)[C@@H](c4ccc(N)cc4Cl)S(=O)(=O)O)[C@H]3S2)C1=O` [compound 35], for which the MIC came out at 1.56 µg/mL (≈ 2.7 µM) with E. coli TK-3 (setting [1]) and 0.78 µg/mL (≈ 1.35 µM) against S. marcescens W-8 (W8, 20 h).
In the case of `O=C(O)C(C(=O)N[C@@H]1C(=O)N2C[C@@](C(=O)O)(N3CCN(N=Cc4ccc(O)c(O)c4)C3=O)S[C@H]12)c1ccccc1` (stereo partly drawn) [compound 4], the MIC in the experiment with E. coli TK-3 (setting [1]) and in the experiment with S. marcescens W-8 (setting [2]) was 6.25 µg/mL (≈ 11 µM) throughout.
On to `NC(=O)C(=O)NN1CCN([C@]2(C(=O)O)CN3C(=O)[C@@H](NC(=O)C(C(=O)O)c4ccccc4)[C@H]3S2)C1=O` (stereo partly drawn) [compound 8], for which the MIC came to 3.13 µg/mL (≈ 6.01 µM) with E. coli TK-3 (TK3, 20 h) and 1.56 µg/mL (≈ 3 µM) in the experiment on S. marcescens W-8 (setting [2]).
`CC(=O)Oc1ccc(C(C(=O)N[C@@H]2C(=O)N3C[C@@](C(=O)O)(N4CCN(NC(N)=O)C4=O)S[C@H]23)S(=O)(=O)O)cc1` (stereo partly drawn) [compound 29]: the MIC with E. coli TK-3 (setting [1]) is 6.25 µg/mL (≈ 10.7 µM); in the experiment with S. marcescens W-8 (setting [2]) it was 3.13 µg/mL (≈ 5.34 µM).
Regarding `O=C(O)CC(=O)NN1CCN([C@]2(C(=O)O)CN3C(=O)[C@@H](NC(=O)C(C(=O)O)c4ccc(O)cc4)[C@H]3S2)C1=O` (stereo partly drawn) [compound 15], the MIC in the experiment on E. coli TK-3 (setting [1]) and in the experiment on S. marcescens W-8 (setting [2]) was 12.5 µg/mL (≈ 22.7 µM) in each case.
With `O=C(NN1CCN([C@]2(C(=O)O)CN3C(=O)[C@@H](NC(=O)C(C(=O)O)c4ccccc4)[C@H]3S2)C1=O)c1cc(=O)c(O)c[nH]1` (stereo partly drawn) [compound 5], the MIC in the experiment with E. coli TK-3 (TK3, 20 h) is 3.13 µg/mL (≈ 5.34 µM); against S. marcescens W-8 (W8, 20 h), 3.13 µg/mL (≈ 5.34 µM).
Turning to `NC(=O)NN1CCN([C@]2(C(=O)O)CN3C(=O)[C@@H](NC(=O)C(c4cc(O)c(O)cc4Cl)S(=O)(=O)O)[C@H]3S2)C1=O` (stereo partly drawn) [compound 21], the MIC in the experiment with E. coli TK-3 (setting [1]) and with S. marcescens W-8 (setting [2]) was 0.39 µg/mL (≈ 0.655 µM) in each case.
On to `NC(=O)NN1CCN([C@]2(C(=O)O)CN3C(=O)[C@@H](NC(=O)[C@@H](c4ccc(O)cc4F)S(=O)(=O)O)[C@H]3S2)C1=O` [compound 38], for which the MIC amounted to 1.56 µg/mL (≈ 2.77 µM) in the experiment with E. coli TK-3 (setting [1]) and 0.78 µg/mL (≈ 1.39 µM) in the experiment with S. marcescens W-8 (W8, 20 h).
Consider `Cn1cc(C=NN2CCN([C@]3(C(=O)O)CN4C(=O)[C@@H](NC(=O)C(C(=O)O)c5ccccc5)[C@H]4S3)C2=O)nn1` (stereo partly drawn) [compound 46], for which the minimal inhibitory concentration (MIC) is 12.5 µg/mL (≈ 23 µM) in the experiment on E. coli TK-3 (setting [1]) and 6.25 µg/mL (≈ 11.5 µM) with S. marcescens W-8 (setting [2]).
For `NC(=O)NN1CCN([C@]2(C(=O)O)CN3C(=O)[C@@H](NC(=O)[C@@H](c4ccc(O)cc4Cl)S(=O)(=O)O)[C@H]3S2)C1=O` [compound 37], the MIC against E. coli TK-3 (TK3, 20 h) turned out to be 0.78 µg/mL (≈ 1.35 µM); with S. marcescens W-8 (setting [2]) it was 0.2 µg/mL (≈ 0.345 µM).
The matching figures for `NC(=O)NN1CCN([C@]2(C(=O)O)CN3C(=O)[C@@H](NC(=O)[C@@H](c4ccc(O)c(O)c4)S(=O)(=O)O)[C@H]3S2)C1=O` [compound 41]: 3.13 µg/mL (≈ 5.58 µM) and 1.56 µg/mL (≈ 2.78 µM).
Regarding `NC(=O)NN1CCN([C@]2(C(=O)O)CN3C(=O)[C@@H](NC(=O)[C@@H](c4ccc(O)c(F)c4)S(=O)(=O)O)[C@H]3S2)C1=O` [compound 39], the MIC against E. coli TK-3 (TK3, 20 h) amounted to 3.13 µg/mL (≈ 5.56 µM); against S. marcescens W-8 (W8, 20 h), 0.78 µg/mL (≈ 1.39 µM).
On to `O=CNN1CCN([C@]2(C(=O)O)CN3C(=O)[C@@H](NC(=O)C(C(=O)O)c4ccccc4)[C@H]3S2)C1=O` (stereo partly drawn) [compound 7], for which the values for the MIC in the experiment on E. coli TK-3 (setting [1]) and in the experiment with S. marcescens W-8 (setting [2]) were 12.5 µg/mL (≈ 26.2 µM) and 6.25 µg/mL (≈ 13.1 µM), respectively.
Turning to `NC(=O)NN=CC=NN1CCN([C@]2(C(=O)O)CN3C(=O)[C@@H](NC(=O)[C@@H](c4cc(O)c(O)cc4Cl)S(=O)(=O)O)[C@H]3S2)C1=O` [compound 43], the MIC with E. coli TK-3 (setting [1]) and with S. marcescens W-8 (setting [2]) was 0.2 µg/mL (≈ 0.308 µM) throughout.
For `CC(=O)Oc1ccc(C(C(=O)N[C@@H]2C(=O)N3C[C@@](C(=O)O)(N4CCN(N=C5SCCS5)C4=O)S[C@H]23)S(=O)(=O)O)cc1OC(C)=O` (stereo partly drawn) [compound 27], the MIC with E. coli TK-3 (setting [1]) stood at 1.56 µg/mL (≈ 2.22 µM).
